Reference: US20110269628A1, “Pesticidal Mixtures” (priority 2009, published 2011)

Experiments:
[1] = test system: Imidazolinone tolerant soybeans; experiment: Chlorophyll content (SPAD chlorophyll-meter), soybean pot experiment; assay type: in vivo; details: 1 DAA; application at BBCH 14; pyraclostrobin 0.6 L/ha (250 g/L), imazapyr 0.3 L/ha (480 g/L)
[2] = test system: Imidazolinone tolerant soybeans; experiment: Stomatal conductance gs (infrared gas analyzer), soybean pot experiment; assay type: in vivo; details: 1 DAA; application at BBCH 14; pyraclostrobin 0.3 L/ha (250 g/L), imazapyr 0.075 L/ha (480 g/L)

Structure (SMILES)	Chlorophyll Content (SPAD) [1]	OE = observed efficacy (%), increase of chlorophyll content vs untreated control [1] [%]	OE = observed efficacy (%), increase of stomatal conductance vs untreated control [2] [%]	SC = Stomatal Conductance (gs) [2] [mol m^−2s^−1]
CC(C)C1(C)N=C(c2ncccc2C(=O)O)NC1=O (centres unmarked) [Imazapyr, imazapyr]	26.5	−1.5	−3.1	0.380
COC(=O)N(OC)c1ccccc1COc1ccn(-c2ccc(Cl)cc2)n1 [Pyraclostrobin, pyraclostrobin]	27.6	2.6	7.4	0.421
